Measured values as given in patent US7847152B2, “Use of tryptophan indole and anthranilate analogs as plant transformation selection agents” (The Board of Trustees of the University of Illinois, priority 2006, dated 2010).
“Also recorded” adds a separate entry of the source.

Key:
[1] = test system: wild-type (WT) tobacco leaf discs; assay: Leaf callus/shoot formation inhibition, wild-type tobacco leaf discs; assay type: cell-based, Nicotiana tabacum; conditions: for effectiveness as selection agent among the analogs tested: 9 Trp analogs and 7 indole analogs tested; for callus production of the wild-type / shoot formation of WT leaf discs: 300 μm analog
Protocol: (§1) Leaf callus formation was studied on the nutrient medium described herein using a total of 30 leaf discs at 28° C. under fluorescent light. After 2 weeks, callus formation was measured and after 4 weeks shoot production was recorded.
(§2) Leaf callus/shoot formation was studied on Tobacco Regeneration Medium that was MS basal medium with 88 μM 6-benzyladenine (BA) and 0.5 μM naphthalene acetic acid (NAA) and various concentrations of different Trp and indole analogs using a total of 30 leaf discs (6 mm each in diameter) from either the untransformed wild type (WT) tobacco or the ASA2 expressing transgenic line transformed with pAST-IV vector (line ASTIV) at 28° C. under fluorescent light as described above. Callus formation and shoot production was visually evaluated after 2, 4 and 6 weeks. Seedling growth inhibition was studied as described herein.

[2] = test system: ASA2 expressing transgenic tobacco (line ASTIV); assay: Leaf callus formation and growth of ASA2 expressing (5MT resistant) tobacco plants; assay type: cell-based, Nicotiana tabacum; conditions: 300 μm analog; for callus and shoot formation of ASA2 expressing leaf discs: after four/six weeks
From the text: (§3) The concentrations listed in Table 1 are for illustrative purposes and should not be construed as a limited range. Seedling growth inhibition was studied by placing a total of 45 surface-sterilized seeds of either the wild-type (WT) tobacco (Nicotiana tabacum cv. Petit Havana SR1) or the ASA2 expressing transgenic plants previously obtained (Zhang et al., 2001), on Murashige-Skoog medium supplemented with 3% sucrose, vitamins, 0.8% agar and various concentrations of the different analogs (see Table 1). Seed germination and root formation were measured after 2 weeks, at 28° C. under fluorescent light. The analogs listed in Table 1 were obtained from Sigma-Aldrich (St. Louis, Mo.) or Acros Organics (Morris Plains, N.J.).
as §1, §2

[3] = test system: wild-type (WT) tobacco seedlings; assay: Seedling growth inhibition test, wild-type tobacco; assay type: in vivo, Nicotiana tabacum; conditions: for germination of WT and ASTIV seeds on analog containing medium / WT seedling growth: 75 μm analog; for WT seedling growth: after two weeks
From the text: as §3
(§4) A vector pC2ASA2 was used, which contains a full length 2,144-bp AS feedback-insensitive α-subunit (ASA2) cDNA, encoding 616 amino acids including a putative transit peptide and 204 bp of 3′non-coding region driven by the CaMV35S promoter. pC2ASA2 was electroporated into Agrobacterium tumefaciens strain EHA105 and then used for the leaf disc transformation. Shoots of tobacco (Nicotiana tabacum L. cv. Xanthi) plants were maintained as in vitro stock cultures in Magenta boxes containing MS basal medium (Murashige and Skoog 1962) with 2 g 1-1 Gelrite® and leaves from these shoots were sources of explants for transformation. The growth conditions were 16-h photoperiod with a temperature of 28° C., florescent lamps providing a photosynthetic photon flux density of 150 μmol m-2 s-1 at the shelf surface. For segregation tests or for seedling growth inhibition tests on different analogs, 50 seeds/plate were surface sterilized with a solution of distilled water-Clorox (80:20; 1.25% Na hypochlorite) for 20 min containing a few drops of Tween 20™ and then rinsed with sterile water before spreading them on MS basal medium plates containing the appropriate selective agent.

[4] = test system: ASA2 expressing transgenic tobacco seedlings; assay: Seedling growth inhibition test, ASA2 expressing transgenic tobacco; assay type: in vivo, Nicotiana tabacum; conditions: 75 μm analog; for germination and growth of T2 seed of homozygous ASA2 lines: four lines, pC2ASA2 transformants; for transgenic seedling growth: line ASTIV
From the text: as §3, with “Seed germination and root formation were measured after 2 weeks, at 28° C. under fluorescent light.” left out
as §4
To test for the segregation of the transgene in the T1 generation, seeds of the transgenic lines were germinated on medium containing either 75 4MI or 75 μm 7MT for 21 days. The ratios of resistant/sensitive seedlings were for most of the lines close to the expected 3:1 ratio confirming a single nuclear site of insertion for the 15 lines tested.

[5] = test system: Arabidopsis germinating seedlings; assay: Discrimination between wild type and ASA2 expressing Arabidopsis germinating seedlings; assay type: in vivo; conditions: Arabidopsis seeds
[6] = test system: tobacco shoot producing leaf discs; assay: Discrimination between wild type and ASA2 expressing tobacco shoot producing leaf discs; assay type: cell-based
Protocol: Various concentrations of the different analogs were tested on maize, soy bean, and tobacco that includes growth inhibition test of germination, leaf callus formation test, and other growth inhibition tests (FIGS. 15-38).
as §2

[7] = test system: tobacco leaf discs transformed with CaMV35S-ASA2; assay: Selection of A. tumefaciens (pC2ASA2) transformed tobacco leaf discs on analog; assay type: cell-based, Nicotiana tabacum L. cv. Xanthi; conditions: for resistant plants obtained (total of two experiments): 300 μm on TRM, 150 leaf discs for 4MI, 135 leaf discs for 7MT; for optimal concentration for selection of putative transformants: on TRM
From the text: as §4
Leaf discs (6 mm each in diameter) from 20 leaves of WT tobacco were used for each transformation experiment. After 6 weeks of selection on TRM with either 300 μM 4MI or 300 μM 7MT and 500 mg/l timentin to eliminate A. tumefaciens, the shoots regenerating from the callus were isolated and transferred to the Rooting Medium with analogs to initiate root growth. After root induction, the plantlets were transferred into soil and grown to maturity in a greenhouse. The T1 seeds were plated on either 4MI or 7MT for segregation tests and to obtain homozygous lines.
The ASA2 gene driven by the CaMV 35S promoter was transferred into tobacco leaf discs via the A. tumefaciens-mediated transformation method. Putative transformants were selected on TRM using the optimal concentration (300 μm) of 4MI and 7MT for selection. 31 resistant plants were obtained in two different experiments: 21 one on 4MI from a total of 150 leaf discs (10 resistant plants from 80 leaf discs in experiment 1 and 11 resistant plants from 70 leaf discs in experiment 2) and 10 on 7MT from a total of 135 leaf discs (6 resistant plants from 70 leaf discs in experiment 1 and 4 resistant plants from 65 leaf discs in experiment 2). […] GUS activity was assessed histochemically in PCR-GUS positive lines using leaf pieces confirming the results obtained with the molecular screening. When the transgenic plants were tested for ASA2 gene expression by RT-PCR an 815-bp fragment was amplified from total RNA extracted from young leaves from 15 transgenic lines while no fragment was detected in the WT. […]

[8] = test system: tobacco leaf discs bombarded with vector pAST-IV; assay: Selection of plastid transformants (pAST-IV) on analog; assay type: cell-based, Nicotiana tabacum cv. Havana; conditions: 60 leaf discs bombarded, 6-8 weeks selection
Protocol: DNA preparation, precipitation onto gold particles, and bombardment were performed as described previously (Svab & Maliga P, 1993) using 0.6 μm gold particles (Bio-Rad, Hercules, Calif.) as micro projectiles. Any suitable particle bombardment procedure can be used. Briefly, the plasmid containing the marker gene and a gene of interest are coated onto gold or tungsten microparticles. The coated particles are air dried and loaded on to a particle gun for particle bombardment into the desired tissue. Nicotiana tabacum cv. Havana was used in the experiments. Green calli and shoots resistant to either 7-MT or 4-MI were obtained after 6-8 wks of selection on RMOP medium (Svab et al., 1990) and subjected to three additional rounds of selection for the homoplastomic condition.
Six to eight weeks after bombardment, 28 independent resistant shoots/calli were recovered from 60 leaf discs bombarded with vector pAST-IV. The 28 lines selected directly for 4MI or 7MT resistance were tested by the PCR reaction using either primers specific for ASA2 gene (L40 and L 39) or a primer specific to the ASA2 coding region (L40) and a primer that is located in the plastid genome outside the flanking region of the vector (L29). […] A 815 bp (L40-L39) and a 2.1 kb (L40-L29) fragments were reproducibly detected in 5 transgenic of the 28 in dependent lines (3 from 7MT and 2 from 4 MI). […]

Which results are given for `Cc1cccc2c(CC(N)C(=O)O)c[nH]c12` (racemic) [7MT, 7-methyl-DL-tryptophan]?
effectiveness as selection agent among the analogs tested [1]: most effective; effectiveness as selection agent among the analogs tested ([1]; listed as 7-MT): enhanced selection properties; callus production of the wild-type [1]: greater inhibition; also recorded: inhibited; shoot formation of WT leaf discs [1]: little shoot formation; growth of the ASA2 expressing (5-MT resistant) plants [2]: not affected; callus and shoot formation of ASA2 expressing leaf discs [2]: formed callus and produced shoots; germination of WT and ASTIV seeds on analog containing medium [3]: germinate almost equally; WT seedling growth [3]: started to bleach, ceased to grow and eventually died; growth of the wild-type seedlings/roots ([3]; 300 μm analog): completely inhibited; germination and growth of T2 seed of homozygous ASA2 lines [4]: all 100 seeds germinated and grew normally; transgenic seedling growth [4]: grew well; transgenic seedling development after six weeks [4]: growing with normal true leaf development; concentration for discriminating between wild type and ASA2 expressing Arabidopsis germinating seedlings [5]: 7MT 300 μM; concentration for discriminating between wild type and ASA2 expressing tobacco shoot producing leaf discs [6]: 7MT 400 μM; resistant plants obtained (total of two experiments) [7]: 10; optimal concentration for selection of putative transformants [7]: 300 μm; PCR-confirmed transgenic lines among 28 independent resistant lines [8]: 3

`CC(=O)c1c[nH]c2ccccc12` [3-acetylI] was tested. Which “concentration for discriminating between wild type and ASA2 expressing tobacco shoot producing leaf discs” value [6] did it give?
Its value is 3-acetylI 500 μM.

With `Fc1cccc2[nH]ccc12` [4FI, 4-Fluoroindole] as the molecule, how does the “concentration for discriminating between wild type and ASA2 expressing Arabidopsis germinating seedlings” value [5] read?
Its value is 4FI 70 μM.

Which results are given for `Cc1cccc2[nH]ccc12` [4MI, 4-Methylindole]?
effectiveness as selection agent among the analogs tested [1]: most effective; effectiveness as selection agent among the analogs tested ([1]; listed as 4-MI): enhanced selection properties; callus production of the wild-type [1]: greater inhibition; also recorded: inhibited; shoot formation of WT leaf discs [1]: little shoot formation; growth of the ASA2 expressing (5-MT resistant) plants [2]: not affected; callus and shoot formation of ASA2 expressing leaf discs [2]: formed callus and produced shoots; germination of WT and ASTIV seeds on analog containing medium [3]: germinate almost equally; WT seedling growth [3]: started to bleach, ceased to grow and eventually died; growth of the wild-type seedlings/roots ([3]; 300 μm analog): completely inhibited; wild-type plant germination ([3]; 300 μm analog): inhibited; germination and growth of T2 seed of homozygous ASA2 lines [4]: all 100 seeds germinated and grew normally; transgenic seedling growth [4]: grew well; transgenic seedling development after six weeks [4]: growing with normal true leaf development; concentration for discriminating between wild type and ASA2 expressing tobacco shoot producing leaf discs [6]: 4MI 300 μM; resistant plants obtained (total of two experiments) [7]: 21; optimal concentration for selection of putative transformants [7]: 300 μm; PCR-confirmed transgenic lines among 28 independent resistant lines [8]: 2

With `Cc1cccc2[nH]cc(C[C@H](N)C(=O)O)c12` [4MT, 4-methyltrypthophan] as the molecule, how does the “concentration for discriminating between wild type and ASA2 expressing Arabidopsis germinating seedlings” value [5] read?
The value was 4MT 70 μM.

Which “concentration for discriminating between wild type and ASA2 expressing tobacco shoot producing leaf discs” value [6] does the source give for `Nc1ccc(F)cc1C(=O)O` [5FA] here?
The value was 5FA 150 μM.

With `Fc1ccc2[nH]ccc2c1` [5FI, 5-Fluoroindole] as the molecule, how does the “concentration for discriminating between wild type and ASA2 expressing Arabidopsis germinating seedlings” value [5] read?
The value was 5FI 20 μM.

With `N[C@@H](Cc1c[nH]c2ccc(O)cc12)C(=O)O` [5HT, 5-hydroxyl-L-tryptophan] as the molecule, how does the “concentration for discriminating between wild type and ASA2 expressing Arabidopsis germinating seedlings” value [5] read?
Its value is 5HT 200 μM.

With `Cc1ccc(N)c(C(=O)O)c1` [5MA, 5-methylanthranilate] as the molecule, how does the “concentration for discriminating between wild type and ASA2 expressing tobacco shoot producing leaf discs” value [6] read?
The value was 5MA 800 μM.

For `COc1ccc2[nH]ccc2c1` [5MI, 5-Methoxyindole], which “concentration for discriminating between wild type and ASA2 expressing tobacco shoot producing leaf discs” value [6] is on record?
Its value is 5MI 1000 μM.

`Cc1ccc2[nH]cc(C[C@H](N)C(=O)O)c2c1` [5MT, 5-methyltrypthophan] was tested. Which “concentration for discriminating between wild type and ASA2 expressing Arabidopsis germinating seedlings” value [5] did it give?
The value was 5MT 200 μM.

Which “concentration for discriminating between wild type and ASA2 expressing tobacco shoot producing leaf discs” value [6] does the source give for `Cc1cccc(N)c1C(=O)O` [6MA, 6-methylanthranilate] here?
Its value is 6MA 70 μM.

`COc1cccc2cc[nH]c12` [7MI, 7-Methoxyindole] was tested. Which “concentration for discriminating between wild type and ASA2 expressing tobacco shoot producing leaf discs” value [6] did it give?
Its value is 7MI 1000 μM.

How did the “concentration for discriminating between wild type and ASA2 expressing Arabidopsis germinating seedlings” value [5] turn out when `C[C@](N)(Cc1c[nH]c2ccccc12)C(=O)O` [α-MT, α- methyltrypthophan] was run?
The value was “α-MT 20 μM”.
